Values of other authors in US8735408B2, “Solid forms of 3-(4-(aminomethyl)-1-(5-methyl-7H-pyrrolo[2,3-d]pyrimidin-4-yl)piperidine-4-carboxamido)phenyl dimethylcarbamate” (Lexicon Pharmaceuticals, Inc., priority 2010, dated 2014).

Settings: models of ophthalmic disease; see US-2009-0264450-A1

## Cc1c[nH]c2ncnc(N3CCC(CN)(C(=O)Nc4cccc(OC(=O)N(C)C)c4)CC3)c12 [3-(4-(aminomethyl)-1-(5-methyl-7H-pyrrolo[2,3-d]pyrimidin-4-yl)piperidine-4-carboxamido)phenyl dimethylcarbamate]
  effect on intraocular pressure: decrease intraocular pressure
